# Test results from patent US20200017496A1 (priority 2017, published 2020).
# Columns and labels:
# Assay in all cases: MIC of compounds alone and combined with antibacterials, broth microdilution (CLSI)
# Type in all cases: cell-based
# [1] = test system: Serratia marcescens (SMA) isolates
# Procedure, shortened: (§1)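 First, log-phase suspensions are brought to a final 5·10^5 CFU/mL in cation-adjusted Mueller-Hinton broth. Then plates with compound, antibacterial, or both incubate 16-20 h at 35° C under ambient air. Finally, visual inspection gives the lowest growth-preventing concentration for each agent.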
# [2] = test system: Klebsiella oxytoca (KOX) isolates; conditions: alone
# Procedure, shortened: as §1
# [3] = test system: Morganella morganii (MMO) isolates; conditions: alone
# Procedure, shortened: as §1
# [4] = test system: Klebsiella pneumoniae (KPN) isolates; conditions: alone
# Procedure, shortened: as §1
structure (smiles),measurement,setting,value
NC(=O)[C@@H]1CC[C@@H]2CN1C(=O)N2OC(F)(F)C(=O)[O-].[Na+] [EA1],MIC,"[1]; SMA UFR30, alone",>32 µg/mL
same,MIC,"[1]; SMA UFR134, alone",>32 µg/mL
same,MIC,"[1]; SMA UFR135, alone",>32 µg/mL
same,MIC,"[1]; SMA UFR136, alone",>32 µg/mL
same,MIC,"[1]; SMA UFR137, alone",>32 µg/mL
same,MIC,"[1]; SMA UFR138, alone",>32 µg/mL
same,MIC,"[1]; SMA UFR139, alone",>32 µg/mL
same,MIC,"[1]; SMA UFR141, alone",>32 µg/mL
same,MIC,"[1]; SMA UFR142, alone",>32 µg/mL
same,MIC,"[1]; SMA UFR143, alone",64 µg/mL
same,MIC,"[1]; SMA UFR239, alone",>32 µg/mL
same,MIC,"[1]; strain SMA UFR238, compound alone",>32 µg/mL
same,MIC,[2]; KOX UFR21,>32 µg/mL
same,MIC,[2]; KOX UFR173,>32 µg/mL
same,MIC,[2]; KOX UFR223,>32 µg/mL
same,MIC,[2]; KOX UFR224,>32 µg/mL
same,MIC,[3]; MMO 200321,>32 µg/mL
same,MIC,[3]; MMO UFR144,>32 µg/mL
same,MIC,[3]; MMO UFR240,>32 µg/mL
same,MIC,[3]; MMO UFR241,>32 µg/mL
same,MIC,[3]; MMO UFR242,128 µg/mL
same,MIC,[3]; MMO UFR243,>32 µg/mL
same,MIC,[3]; MMO UFR244,>32 µg/mL
same,MIC,[3]; MMO UFR245,>32 µg/mL
same,MIC,[3]; MMO UFR246,>32 µg/mL
same,MIC,[3]; MMO UFR247,64 µg/mL
same,MIC,[4]; KPN 6299,>32 µg/mL
same,MIC,[4]; KPN 110376,>32 µg/mL
same,MIC,[4]; KPN 131119,>32 µg/mL
same,MIC,[4]; KPN 140513,>32 µg/mL
same,MIC,[4]; KPN 160143,>32 µg/mL
same,MIC,[4]; KPN 190128,>32 µg/mL
same,MIC,[4]; KPN 190270,>32 µg/mL
same,MIC,[4]; KPN 190425,>32 µg/mL
same,MIC,[4]; KPN 190551,>32 µg/mL
same,MIC,[4]; KPN 200047,>32 µg/mL
same,MIC,[4]; KPN 200327,>32 µg/mL
same,MIC,[4]; KPN 260251,>32 µg/mL
same,MIC,[4]; KPN 260252,>32 µg/mL
same,MIC,[4]; KPN 260376,>32 µg/mL
same,MIC,[4]; KPN 270077,>32 µg/mL
same,MIC,[4]; KPN 700603,>32 µg/mL
same,MIC,[4]; KPN ARA,>32 µg/mL
same,MIC,[4]; KPN BAA-1898,>32 µg/mL
same,MIC,[4]; KPN LIB,>32 µg/mL
same,MIC,[4]; KPN UFR22_O,>32 µg/mL
same,MIC,[4]; KPN UFR23,>32 µg/mL
same,MIC,[4]; KPN UFR24,>32 µg/mL
same,MIC,[4]; KPN UFR25,>32 µg/mL
same,MIC,[4]; KPN UFR27,>32 µg/mL
same,MIC,[4]; KPN UFR28,>32 µg/mL
same,MIC,[4]; KPN UFR65,>32 µg/mL
same,MIC,[4]; KPN UFR66,>32 µg/mL
same,MIC,[4]; KPN UFR67,>32 µg/mL
same,MIC,[4]; KPN UFR68,>32 µg/mL
same,MIC,[4]; KPN UFR76,>32 µg/mL
same,MIC,[4]; KPN UFR77,>32 µg/mL
same,MIC,[4]; KPN UFR78,>32 µg/mL
same,MIC,[4]; KPN UFR79,>32 µg/mL
same,MIC,[4]; KPN UFR80,>32 µg/mL
same,MIC,[4]; KPN UFR81,>32 µg/mL
same,MIC,[4]; KPN UFR215,>32 µg/mL
same,MIC,[4]; KPN UFR216,>32 µg/mL
same,MIC,[4]; KPN UFR217,>32 µg/mL
same,MIC,[4]; KPN UFR219,>32 µg/mL
same,MIC,[4]; KPN UFR220,>32 µg/mL
same,MIC,[4]; KPN UFR221,>32 µg/mL
same,MIC,[4]; KPN UFR222,>32 µg/mL
same,MIC,[4]; KPN UFR227O,>32 µg/mL
